# What was measured:
# LZK = target: T1, LZK (Homo sapiens, UniProt O43283); test: LZK biochemical assay (TR-FRET, MKK7 phosphorylation)
# T1 construct: 10 nM LZK, catalytic domain, Carna Biosiences in assay buffer; purchased Carna Biosciences ('Carna Biosiences' [sic])
# T1 sequence (O43283 168-409 limits assumed): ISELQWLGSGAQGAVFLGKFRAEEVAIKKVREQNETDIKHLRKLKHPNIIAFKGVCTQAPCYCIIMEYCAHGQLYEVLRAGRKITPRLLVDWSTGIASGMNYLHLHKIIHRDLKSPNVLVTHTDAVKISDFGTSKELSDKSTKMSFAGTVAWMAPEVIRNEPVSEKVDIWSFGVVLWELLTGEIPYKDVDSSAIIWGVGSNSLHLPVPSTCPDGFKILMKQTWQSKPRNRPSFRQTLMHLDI
# Procedure, shortened: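 LZK catalytic domain (10 nM) phosphorylates His-MKK7 (15 nM) with 15 µM ATP, all final, for 90 min at RT in HEPES buffer pH 7.5 with MgCl2. Phospho-T275/S277 detected by TR-FRET (Eu anti-phospho donor, XL665 anti-His acceptor) after 16 h at 32 °C in EDTA stop buffer. Inhibition lowers the 665/Eu ratio.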
# DLK = target: T2, DLK (Homo sapiens, UniProt Q12852); test: DLK biochemical assay (TR-FRET, MKK7 phosphorylation)
# T2 construct: 10 nM DLK, catalytic domain, Carna Biosiences; purchased Carna Biosciences ('Carna Biosiences' [sic])
# T2 sequence (Q12852 125-366 limits assumed): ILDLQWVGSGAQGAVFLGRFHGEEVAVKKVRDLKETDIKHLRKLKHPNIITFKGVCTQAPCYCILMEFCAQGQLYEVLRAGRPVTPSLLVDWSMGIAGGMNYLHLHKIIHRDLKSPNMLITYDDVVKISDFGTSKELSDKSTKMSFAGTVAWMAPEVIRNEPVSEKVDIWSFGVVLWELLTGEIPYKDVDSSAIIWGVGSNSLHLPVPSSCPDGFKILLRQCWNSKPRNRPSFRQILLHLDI
# Procedure, shortened: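 DLK catalytic domain (10 nM) phosphorylates His-MKK7 (15 nM) at 60 μM ATP for 90 min at RT in pH 7.5 Hepes buffer (final concentrations). Phospho-T275/S277 is detected by TR-FRET (Eu anti-phospho donor, XL665 anti-His acceptor) after 16 h at 37° C (1536 format) or 4° C (384 format).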
SMILES,IC50 (LZK),IC50 (DLK)
"CC(C)C(c1ccc(C(F)(F)F)nc1)n1cc(-c2cc(-c3ccc(C(F)F)nc3)n3nc(N)nc3c2)cn1 (single isomer, unassigned) [II-72, 5-[6-(Difluoromethyl)pyridin-3-yl]-7-(1-{2-methyl-1-[6-(trifluoromethyl)pyridin-3-yl]propyl}-1H-pyrazol-4-yl)[1,2,4]triazolo[1,5-a]pyridin-2-amine]",17 nM,16 nM
"CC(C)C(c1ccc(C(F)(F)F)nc1)n1cc(-c2cc(-c3ccc(C4CC(F)(F)C4)nc3)n3nc(N)nc3c2)cn1 (single isomer, unassigned) [II-74, 5-[6-(3,3-Difluorocyclobutyl)pyridin-3-yl]-7-(1-{2-methyl-1-[6-(trifluoromethyl)pyridin-3-yl]propyl}-1H-pyrazol-4-yl)[1,2,4]triazolo[1,5-a]pyridin-2-amine]",170 nM,510 nM
"CC(C)C(c1ccc(C(F)(F)F)nc1)n1cc(-c2cc(-c3ccc(C4CC(F)(F)C4)nc3)n3nc(N)nc3c2)cn1 (single isomer, unassigned) [II-75, 5-[6-(3,3-Difluorocyclobutyl)pyridin-3-yl]-7-(1-{2-methyl-1-[6-(trifluoromethyl)pyridin-3-yl]propyl}-1H-pyrazol-4-yl)[1,2,4]triazolo[1,5-a]pyridin-2-amine]",15 nM,27 nM
"Nc1nc2cc(-c3cnn(C(c4ccc(C(F)F)nc4)C4CCOCC4)c3)cc(-c3ccc(C(F)(F)F)nc3)n2n1 (single isomer, unassigned) [II-77, 7-(1-{[6-(Difluoromethyl)pyridin-3-yl](tetrahydro-2H-pyran-4-yl)methyl}-1H-pyrazol-4-yl)-5-[6-(trifluoromethyl)pyridin-3-yl][1,2,4]triazolo[1,5-a]pyridin-2-amine]",61 nM,160 nM
"Nc1nc2cc(-c3cnn(C(c4ccc(C(F)F)nc4)C4CCOCC4)c3)cc(-c3ccc(C(F)(F)F)nc3)n2n1 (single isomer, unassigned) [II-78, 7-(1-{[6-(Difluoromethyl)pyridin-3-yl](tetrahydro-2H-pyran-4-yl)methyl}-1H-pyrazol-4-yl)-5-[6-(trifluoromethyl)pyridin-3-yl][1,2,4]triazolo[1,5-a]pyridin-2-amine]",5.3 nM,5.2 nM
"CC(C)C(c1ccc(C(F)(F)F)nc1)n1cc(-c2cc(-c3ccc(C4(O)CCC4)nc3)n3nc(N)nc3c2)cn1 (single isomer, unassigned) [II-81, 1-{5-[2-Amino-7-(1-{2-methyl-1-[6-(trifluoromethyl)pyridin-3-yl]propyl}-1H-pyrazol-4-yl)[1,2,4]triazolo[1,5-a]pyridin-5-yl]pyridin-2-yl}cyclobutan-1-ol]",2.4 nM,4 nM
"CC(C)C(c1ccc(C(F)(F)F)nc1)n1cc(-c2cc(-c3ccc(C4(O)CCC4)nc3)n3nc(N)nc3c2)cn1 (single isomer, unassigned) [II-82, 1-{5-[2-Amino-7-(1-{2-methyl-1-[6-(trifluoromethyl)pyridin-3-yl]propyl}-1H-pyrazol-4-yl)[1,2,4]triazolo[1,5-a]pyridin-5-yl]pyridin-2-yl}cyclobutan-1-ol]",42 nM,42 nM
"CC[C@@H](c1ccccc1)n1cc(-c2cc(-c3cnn(C(C)C(F)(F)F)c3)c3nc(N)nn3c2)cn1 (single isomer, unassigned) [II-95]",40 nM,5.6 nM
"CC[C@@H](c1ccccc1)n1cc(-c2cc(-c3cnn(C(C)C(F)(F)F)c3)c3nc(N)nn3c2)cn1 (single isomer, unassigned) [II-96]",60 nM,17 nM

# Now from value to molecule:
IC50 (LZK),IC50 (DLK),SMILES
500 nM,58 nM,"CCC(c1ccc(C(F)(F)F)cc1)n1cc(-c2cc(-c3cnn(C)c3)c3nc(N)nn3c2)cn1 (single isomer, unassigned) [II-100, 8-(1-Methyl-1H-pyrazol-4-yl)-6-(1-{1-[4-(trifluoromethyl)phenyl]propyl}-1H-pyrazol-4-yl)[1,2,4]triazolo[1,5-a]pyridin-2-amine]"
110 nM,6.8 nM,"CCC(c1ccc(C(F)(F)F)cc1)n1cc(-c2cc(-c3cnn(C)c3)c3nc(N)nn3c2)cn1 (single isomer, unassigned) [II-101, 8-(1-Methyl-1H-pyrazol-4-yl)-6-(1-{1-[4-(trifluoromethyl)phenyl]propyl}-1H-pyrazol-4-yl)[1,2,4]triazolo[1,5-a]pyridin-2-amine]"
160 nM,64 nM,"CCC(c1ccc(N2CCOCC2)cc1)n1cc(-c2cc(-c3cnn(CC(F)(F)F)c3)c3nc(N)nn3c2)cn1 (single isomer, unassigned) [II-103, 6-(1-{1-[4-(Morpholin-4-yl)phenyl]propyl}-1H-pyrazol-4-yl)-8-[1-(2,2,2-trifluoroethyl)-1H-pyrazol-4-yl][1,2,4]triazolo[1,5-a]pyridin-2-amine]"
51 nM,6 nM,"CCC(c1ccc(N2CCOCC2)cc1)n1cc(-c2cc(-c3cnn(CC(F)(F)F)c3)c3nc(N)nn3c2)cn1 (single isomer, unassigned) [II-104, 6-(1-{1-[4-(Morpholin-4-yl)phenyl]propyl}-1H-pyrazol-4-yl)-8-[1-(2,2,2-trifluoroethyl)-1H-pyrazol-4-yl][1,2,4]triazolo[1,5-a]pyridin-2-amine]"
47 nM,40 nM,"CCC(c1ccc(C(F)F)nc1)n1cc(-c2cc(-c3cnn(CC(F)(F)F)c3)c3nc(N)nn3c2)cn1 (single isomer, unassigned) [II-106, 6-(1-{1-[6-(Difluoromethyl)pyridin-3-yl]propyl}-1H-pyrazol-4-yl)-8-[1-(2,2,2-trifluoroethyl)-1H-pyrazol-4-yl][1,2,4]triazolo[1,5-a]pyridin-2-amine]"
10 nM,4 nM,"CCC(c1ccc(C(F)F)nc1)n1cc(-c2cc(-c3cnn(CC(F)(F)F)c3)c3nc(N)nn3c2)cn1 (single isomer, unassigned) [II-107, 6-(1-{1-[6-(Difluoromethyl)pyridin-3-yl]propyl}-1H-pyrazol-4-yl)-8-[1-(2,2,2-trifluoroethyl)-1H-pyrazol-4-yl][1,2,4]triazolo[1,5-a]pyridin-2-amine]"
57 nM,16 nM,"CCC(c1ccc(C(F)(F)F)nc1)n1cc(-c2cc(-c3cnn(CC(F)F)c3)c3nc(N)nn3c2)cn1 (single isomer, unassigned) [II-109, 8-[1-(2,2-Difluoroethyl)-1H-pyrazol-4-yl]-6-(1-{1-[6-(trifluoromethyl)pyridin-3-yl]propyl}-1H-pyrazol-4-yl)[1,2,4]triazolo[1,5-a]pyridin-2-amine]"
9.7 nM,2.2 nM,"CCC(c1ccc(C(F)(F)F)nc1)n1cc(-c2cc(-c3cnn(CC(F)F)c3)c3nc(N)nn3c2)cn1 (single isomer, unassigned) [II-110, 8-[1-(2,2-Difluoroethyl)-1H-pyrazol-4-yl]-6-(1-{1-[6-(trifluoromethyl)pyridin-3-yl]propyl}-1H-pyrazol-4-yl)[1,2,4]triazolo[1,5-a]pyridin-2-amine]"
17 nM,4.7 nM,"CC[C@@H](c1ccc(C(F)(F)F)nc1)n1cc(-c2cc(-c3cnn(CC(F)(F)F)c3)c3nc(N)nn3c2)cn1 (single isomer, unassigned) [II-112, 8-[1-(2,2,2-trifluoroethyl)-1H-pyrazol-4-yl]-6-(1-{1-[6-(trifluoromethyl)pyridin-3-yl]propyl}-1H-pyrazol-4-yl)[1,2,4]triazolo[1,5-a]pyridin-2-amine]"

# Reference: patent US20230086702A1, “SUBSTITUTED 2-AMINO-PYRAZOLYL-[1,2,4]TRIAZOLO[1,5A]PYRIDINE DERIVATIVES AND USE THEREOF” (The Johns Hopkins University, priority 2019, published 2023)
